In general, inhibition refers to the change of the read-out against control, counted positive when it falls.

SMILES strings stand for the structures. Calls of active or inactive are those of the source. The calls are words filed in the database; no cut-off is given here.

In assay [1] the test system is RAW264.7. The experiment in a line: Antiinflammatory activity in mouse RAW264.7 cells assessed as inhibition of LPS-induced nitric oxide production at 10 uM preincubated for 2 hrs followed by LPS stimulation and measured after 24 hrs by Griess assay relative to control. It counts as functional. (In general: Griess reagent forms a coloured azo dye with nitrite.)
In assay [2] the test system is SH-SY5Y. Nature of the assay: Neuroprotective activity against H2O2-induced cytotoxicity in human SH-SY5Y cells assessed as cell viability at 10 uM pretreated for 2 hrs followed by H2O2 challenge and measured after 24 hrs by MTT assay relative to control. Type of assay: functional. To be noted: for viability at 10 µM: read-out: Activity. In general terms: Tetrazolium dyes change colour on reduction, which living cells bring about.

Take `C[C@@H]1CC[C@@]2(OC1)O[C@H]1C[C@H]3[C@@H]4CC=C5C[C@@H](OC(=O)NCc6ccc(F)cc6)CC[C@]5(C)[C@H]4CC[C@]3(C)[C@H]1[C@@H]2C`: the inhibition at 10 µM in assay [1] is 18.6%. In addition, in assay [2], the viability at 10 µM was 60.1%. For `C[C@@H]1CC[C@@]2(OC1)O[C@H]1C[C@H]3[C@@H]4CC=C5C[C@@H](OC(=O)NC6CC6)CC[C@]5(C)[C@H]4CC[C@]3(C)[C@H]1[C@@H]2C`, the result in assay [2] was inactive. For `CC(C)CNC(=O)O[C@H]1CC[C@@]2(C)C(=CC[C@H]3[C@@H]4C[C@@H]5O[C@]6(CC[C@@H](C)CO6)[C@@H](C)[C@@H]5[C@@]4(C)CC[C@@H]32)C1`, the viability at 10 µM in assay [2] amounted to 25.3%.

As to `C[C@@H]1CC[C@@]2(OC1)O[C@H]1C[C@H]3[C@@H]4CC=C5C[C@@H](OC(=O)N(C)Cc6ccc(F)cc6)CC[C@]5(C)[C@H]4CC[C@]3(C)[C@H]1[C@@H]2C`, the viability at 10 µM in assay [2] is 10.7%.

As to `C[C@@H]1CC[C@@]2(OC1)O[C@H]1C[C@H]3[C@@H]4CC=C5C[C@@H](OC(=O)N6CCCC6)CC[C@]5(C)[C@H]4CC[C@]3(C)[C@H]1[C@@H]2C`, the inhibition at 10 µM in assay [1] is 16.5%. The viability at 10 µM in assay [2] is 63.2%.

`C[C@@H]1CC[C@@]2(OC1)O[C@H]1C[C@H]3[C@@H]4CC=C5C[C@@H](OC(=O)N6CCN(Cc7ccc(F)cc7)CC6)CC[C@]5(C)[C@H]4CC[C@]3(C)[C@H]1[C@@H]2C`: the viability at 10 µM in assay [2] is 5.4%. Take `C[C@@H]1CC[C@@]2(OC1)O[C@H]1C[C@H]3[C@@H]4CC=C5C[C@@H](OC(=O)NCc6ccncc6)CC[C@]5(C)[C@H]4CC[C@]3(C)[C@H]1[C@@H]2C`: the inhibition at 10 µM in assay [1] came out at 11.8%. In addition, the viability at 10 µM in assay [2] came out at 42.1%. For the compound `C[C@@H]1CC[C@@]2(OC1)O[C@H]1C[C@H]3[C@@H]4CC=C5C[C@@H](OC(=O)NCc6ccccc6Cl)CC[C@]5(C)[C@H]4CC[C@]3(C)[C@H]1[C@@H]2C`, the viability at 10 µM in assay [2] is 8.9%. Still for that read-out and setting: the result for `C[C@@H]1CC[C@@]2(OC1)O[C@H]1C[C@H]3[C@@H]4CC=C5C[C@@H](OC(=O)NCc6cnccn6)CC[C@]5(C)[C@H]4CC[C@]3(C)[C@H]1[C@@H]2C` reads 22.3%. `COc1ccc(CN2CCN(C(=O)O[C@H]3CC[C@@]4(C)C(=CC[C@H]5[C@@H]6C[C@@H]7O[C@]8(CC[C@@H](C)CO8)[C@@H](C)[C@@H]7[C@@]6(C)CC[C@@H]54)C3)CC2)cc1`: in assay [2], the result was inactive. With `COc1ccc(CNC(=O)O[C@H]2CC[C@@]3(C)C(=CC[C@H]4[C@@H]5C[C@@H]6O[C@]7(CC[C@@H](C)CO7)[C@@H](C)[C@@H]6[C@@]5(C)CC[C@@H]43)C2)cc1`, in assay [1], the inhibition at 10 µM came out at 18.6%. Besides, in assay [2], the viability at 10 µM was 53.5%.

On to `Cc1ccccc1CNC(=O)O[C@H]1CC[C@@]2(C)C(=CC[C@H]3[C@@H]4C[C@@H]5O[C@]6(CC[C@@H](C)CO6)[C@@H](C)[C@@H]5[C@@]4(C)CC[C@@H]32)C1`, for which, in assay [2], the viability at 10 µM turned out to be 7.9%. On the same count and under the same terms, as for `Cc1cccc(CNC(=O)O[C@H]2CC[C@@]3(C)C(=CC[C@H]4[C@@H]5C[C@@H]6O[C@]7(CC[C@@H](C)CO7)[C@@H](C)[C@@H]6[C@@]5(C)CC[C@@H]43)C2)c1`, the figure is 14.2%; as for `COc1ccc(CN(C)C(=O)O[C@H]2CC[C@@]3(C)C(=CC[C@H]4[C@@H]5C[C@@H]6O[C@]7(CC[C@@H](C)CO7)[C@@H](C)[C@@H]6[C@@]5(C)CC[C@@H]43)C2)cc1`, 19.4%. The same measure, in the same setting: the result for `C[C@@H]1CC[C@@]2(OC1)O[C@H]1C[C@H]3[C@@H]4CC=C5C[C@@H](OC(=O)NCc6ccccc6F)CC[C@]5(C)[C@H]4CC[C@]3(C)[C@H]1[C@@H]2C` reads 21%; that for `C[C@@H]1CC[C@@]2(OC1)O[C@H]1C[C@H]3[C@@H]4CC=C5C[C@@H](OC(=O)NCc6cccc(Cl)c6)CC[C@]5(C)[C@H]4CC[C@]3(C)[C@H]1[C@@H]2C`, 13.7%. With `C[C@@H]1CC[C@@]2(OC1)O[C@H]1C[C@H]3[C@@H]4CC=C5C[C@@H](OC(=O)N(C)Cc6ccccc6)CC[C@]5(C)[C@H]4CC[C@]3(C)[C@H]1[C@@H]2C`, the inhibition at 10 µM in assay [1] is 20.8%. The viability at 10 µM in assay [2] was determined as 43.5%.

As to `C[C@@H]1CC[C@@]2(OC1)O[C@H]1C[C@H]3[C@@H]4CC=C5C[C@@H](OC(=O)N6CCN(Cc7ccc(Cl)cc7)CC6)CC[C@]5(C)[C@H]4CC[C@]3(C)[C@H]1[C@@H]2C`, the viability at 10 µM in assay [2] was 4.5%. The same measure, in the same setting: as for `C[C@@H]1CC[C@@]2(OC1)O[C@H]1C[C@H]3[C@@H]4CC=C5C[C@@H](OC(=O)NC(C)(C)C)CC[C@]5(C)[C@H]4CC[C@]3(C)[C@H]1[C@@H]2C`, the figure is 7.7%; as for `C[C@@H]1CC[C@@]2(OC1)O[C@H]1C[C@H]3[C@@H]4CC=C5C[C@@H](OC(=O)NCc6cccnc6)CC[C@]5(C)[C@H]4CC[C@]3(C)[C@H]1[C@@H]2C`, 3.5%. In the case of `COc1cccc(CNC(=O)O[C@H]2CC[C@@]3(C)C(=CC[C@H]4[C@@H]5C[C@@H]6O[C@]7(CC[C@@H](C)CO7)[C@@H](C)[C@@H]6[C@@]5(C)CC[C@@H]43)C2)c1`, the inhibition at 10 µM in assay [1] was 9.8%. The viability at 10 µM in assay [2] is 38.8%. On to `C[C@@H]1CC[C@@]2(OC1)O[C@H]1C[C@H]3[C@@H]4CC=C5C[C@@H](OC(=O)NC6CCCCC6)CC[C@]5(C)[C@H]4CC[C@]3(C)[C@H]1[C@@H]2C`, for which, in assay [1], the inhibition at 10 µM came out at 11.6%. Also, in assay [2], the viability at 10 µM was 34.4%. Turning to `C[C@@H]1CC[C@@]2(OC1)O[C@H]1C[C@H]3[C@@H]4CC=C5C[C@@H](OC(=O)NCc6cccc(F)c6)CC[C@]5(C)[C@H]4CC[C@]3(C)[C@H]1[C@@H]2C`, the viability at 10 µM in assay [2] worked out at 27.4%.

On to `C[C@@H]1CC[C@@]2(OC1)O[C@H]1C[C@H]3[C@@H]4CC=C5C[C@@H](OC(=O)NCc6ccc(Cl)cc6)CC[C@]5(C)[C@H]4CC[C@]3(C)[C@H]1[C@@H]2C`, for which the inhibition at 10 µM in assay [1] worked out at 7%. Besides, the viability at 10 µM in assay [2] amounted to 56.9%. In the case of `CCNC(=O)O[C@H]1CC[C@@]2(C)C(=CC[C@H]3[C@@H]4C[C@@H]5O[C@]6(CC[C@@H](C)CO6)[C@@H](C)[C@@H]5[C@@]4(C)CC[C@@H]32)C1`, the viability at 10 µM in assay [2] turned out to be 10.9%. Regarding `C[C@@H]1CC[C@@]2(OC1)O[C@H]1C[C@H]3[C@@H]4CC=C5C[C@@H](OC(=O)N(C)Cc6ccc(Cl)cc6)CC[C@]5(C)[C@H]4CC[C@]3(C)[C@H]1[C@@H]2C`, the inhibition at 10 µM in assay [1] came out at 12.5%. The viability at 10 µM in assay [2] was 43.9%.

As to `C[C@@H]1CC[C@@]2(OC1)O[C@H]1C[C@H]3[C@@H]4CC=C5C[C@@H](OC(=O)N6CCCCC6)CC[C@]5(C)[C@H]4CC[C@]3(C)[C@H]1[C@@H]2C`, in assay [1], the inhibition at 10 µM stood at 12%. In assay [2], the viability at 10 µM is 36.7%. For the compound `C[C@@H]1CC[C@@]2(OC1)O[C@H]1C[C@H]3[C@@H]4CC=C5C[C@@H](OC(=O)N6CCN(Cc7ccccc7)CC6)CC[C@]5(C)[C@H]4CC[C@]3(C)[C@H]1[C@@H]2C`, in assay [2], the viability at 10 µM is 11.2%. With `C[C@@H]1CC[C@@]2(OC1)O[C@H]1C[C@H]3[C@@H]4CC=C5C[C@@H](OC(=O)NCc6ccc(C(F)(F)F)cc6)CC[C@]5(C)[C@H]4CC[C@]3(C)[C@H]1[C@@H]2C`, the outcome in assay [2] was inactive.

On to `C[C@@H]1CC[C@@]2(OC1)O[C@H]1C[C@H]3[C@@H]4CC=C5C[C@@H](OC(=O)N6CCN(C)CC6)CC[C@]5(C)[C@H]4CC[C@]3(C)[C@H]1[C@@H]2C`, for which, in assay [2], the viability at 10 µM amounted to 3.6%.

Regarding `Cc1ccc(CN(C)C(=O)O[C@H]2CC[C@@]3(C)C(=CC[C@H]4[C@@H]5C[C@@H]6O[C@]7(CC[C@@H](C)CO7)[C@@H](C)[C@@H]6[C@@]5(C)CC[C@@H]43)C2)cc1`, the result in assay [2] was inactive. As for `C[C@@H]1CC[C@@]2(OC1)O[C@H]1C[C@H]3[C@@H]4CC=C5C[C@@H](O)CC[C@]5(C)[C@H]4CC[C@]3(C)[C@H]1[C@@H]2C` [DISOGENIN], the viability at 10 µM in assay [2] was 6.7%. The same measure, in the same setting: as for `CCN(C)C(=O)O[C@H]1CC[C@@]2(C)C(=CC[C@H]3[C@@H]4C[C@@H]5O[C@]6(CC[C@@H](C)CO6)[C@@H](C)[C@@H]5[C@@]4(C)CC[C@@H]32)C1`, the figure is 4.3%.

In the case of `COc1cc(CN2CCN(C(=O)O[C@H]3CC[C@@]4(C)C(=CC[C@H]5[C@@H]6C[C@@H]7O[C@]8(CC[C@@H](C)CO8)[C@@H](C)[C@@H]7[C@@]6(C)CC[C@@H]54)C3)CC2)ccc1O`, the viability at 10 µM in assay [2] is 23.1%. For `COc1ccccc1CNC(=O)O[C@H]1CC[C@@]2(C)C(=CC[C@H]3[C@@H]4C[C@@H]5O[C@]6(CC[C@@H](C)CO6)[C@@H](C)[C@@H]5[C@@]4(C)CC[C@@H]32)C1`, the viability at 10 µM in assay [2] stood at 11.3%. On the same count and under the same terms, as for `C[C@@H]1CC[C@@]2(OC1)O[C@H]1C[C@H]3[C@@H]4CC=C5C[C@@H](OC(=O)N6CCN(Cc7ccc(O)cc7)CC6)CC[C@]5(C)[C@H]4CC[C@]3(C)[C@H]1[C@@H]2C`, the figure is 9.7%. As to `C[C@@H]1CC[C@@]2(OC1)O[C@H]1C[C@H]3[C@@H]4CC=C5C[C@@H](OC(=O)NC6CCCC6)CC[C@]5(C)[C@H]4CC[C@]3(C)[C@H]1[C@@H]2C`, the viability at 10 µM in assay [2] worked out at 3.3%. Consider `Cc1ccc(CNC(=O)O[C@H]2CC[C@@]3(C)C(=CC[C@H]4[C@@H]5C[C@@H]6O[C@]7(CC[C@@H](C)CO7)[C@@H](C)[C@@H]6[C@@]5(C)CC[C@@H]43)C2)cc1`, for which the viability at 10 µM in assay [2] was determined as 26.3%. For the compound `CC(C)CN(C)C(=O)O[C@H]1CC[C@@]2(C)C(=CC[C@H]3[C@@H]4C[C@@H]5O[C@]6(CC[C@@H](C)CO6)[C@@H](C)[C@@H]5[C@@]4(C)CC[C@@H]32)C1`, the viability at 10 µM in assay [2] is 17.7%.

For the origin of these results see ChEMBL document CHEMBL4602645, “Design, synthesis and evaluation of diosgenin carbamate derivatives as multitarget anti-Alzheimer's disease agents” (2020).
